Assay results: ChEMBL document CHEMBL1128983, “Synthesis and biological activity of novel sialyl-lewisX conjugates” (Bioorg Med Chem Lett, 1996)

target: T1, E-selectin (Homo sapiens, UniProt P16581); assay: Compound was tested for inhibition of HL60 cell adhesion to recombinant Selectin E IgG fusion protein obtained from transfected COS cells; assay type: functional, cell-based, HL-60
T1 sequence (P16581 whole entry): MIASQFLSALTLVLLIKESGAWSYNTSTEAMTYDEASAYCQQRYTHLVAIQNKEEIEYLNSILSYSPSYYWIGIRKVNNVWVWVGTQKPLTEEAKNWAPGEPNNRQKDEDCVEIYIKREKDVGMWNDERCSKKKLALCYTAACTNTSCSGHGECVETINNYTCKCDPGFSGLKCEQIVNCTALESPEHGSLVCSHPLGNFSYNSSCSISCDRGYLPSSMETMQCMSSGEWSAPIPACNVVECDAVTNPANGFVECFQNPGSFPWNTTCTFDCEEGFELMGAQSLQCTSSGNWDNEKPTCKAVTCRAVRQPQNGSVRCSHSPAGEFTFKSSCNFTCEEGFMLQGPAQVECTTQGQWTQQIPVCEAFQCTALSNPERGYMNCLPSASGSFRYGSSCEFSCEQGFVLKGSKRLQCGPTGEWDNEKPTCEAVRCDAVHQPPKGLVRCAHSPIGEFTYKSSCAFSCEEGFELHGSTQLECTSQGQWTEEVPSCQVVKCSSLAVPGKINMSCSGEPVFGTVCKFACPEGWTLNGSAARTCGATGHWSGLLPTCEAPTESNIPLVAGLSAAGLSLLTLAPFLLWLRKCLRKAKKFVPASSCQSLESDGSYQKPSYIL

IC50 [µM] | SMILES
280 | CC(=O)N[C@@H]1[C@H](OCCCCCCNC(=O)[C@H]2CC[C@H](CN3C(=O)C=CC3=O)CC2)O[C@@H](CO)[C@@H](O[C@@H]2O[C@@H](CO)[C@H](O)[C@H](O[C@]3(C(=O)O)C[C@@H](O)[C@@H](NC(C)=O)[C@H]([C@H](O)[C@H](O)CO)O3)[C@@H]2O)[C@@H]1O[C@@H]1O[C@@H](C)[C@@H](O)[C@H](O)[C@@H]1O
650 | CC(=O)N[C@@H]1[C@H](OCCCCCC/N=C(S)/N=C2\C=CC(=C3c4ccc(O)cc4Oc4cc(O)ccc43)C(C(=O)O)=C2)O[C@@H](CO)[C@@H](O[C@@H]2O[C@@H](CO)[C@H](O)[C@H](O[C@]3(C(=O)O)C[C@@H](O)[C@@H](NC(C)=O)[C@H]([C@H](O)[C@H](O)CO)O3)[C@@H]2O)[C@@H]1O[C@@H]1O[C@@H](C)[C@@H](O)[C@H](O)[C@@H]1O
1150 | CC(=O)N[C@@H]1[C@H](OCCCCCCNC(=O)CCC(=O)O)O[C@@H](CO)[C@@H](O[C@@H]2O[C@@H](CO)[C@H](O)[C@H](O[C@]3(C(=O)O)C[C@@H](O)[C@@H](NC(C)=O)[C@H]([C@H](O)[C@H](O)CO)O3)[C@@H]2O)[C@@H]1O[C@@H]1O[C@@H](C)[C@@H](O)[C@H](O)[C@@H]1O
1000 | CC(=O)N[C@@H]1[C@H](OCCCCCCN)O[C@@H](CO)[C@@H](O[C@@H]2O[C@@H](CO)[C@H](O)[C@H](O[C@]3(C(=O)O)C[C@@H](O)[C@@H](NC(C)=O)[C@H]([C@H](O)[C@H](O)CO)O3)[C@@H]2O)[C@@H]1O[C@@H]1O[C@@H](C)[C@@H](O)[C@H](O)[C@@H]1O

Continued, compound first:

SMILES | IC50 [µM]
CC(=O)N[C@@H]1[C@H](OCCCCCCNC(=O)CCCC[C@@H]2SC[C@@H]3NC(=O)N[C@@H]32)O[C@@H](CO)[C@@H](O[C@@H]2O[C@@H](CO)[C@H](O)[C@H](O[C@]3(C(=O)O)C[C@@H](O)[C@@H](NC(C)=O)[C@H]([C@H](O)[C@H](O)CO)O3)[C@@H]2O)[C@@H]1O[C@@H]1O[C@@H](C)[C@@H](O)[C@H](O)[C@@H]1O | 590
CC(=O)N[C@H]1[C@H]([C@H](O)[C@H](O)CO)O[C@@](O[C@@H]2[C@H](O)[C@H](O[C@H]3[C@H](O[C@@H]4O[C@@H](C)[C@@H](O)[C@H](O)[C@@H]4O)[C@H](NC(C)=O)[C@H](NC(=O)[C@H](C)NC(=O)[C@H](CC(=O)O)NC(=O)CNC(=O)[C@@H](N)CCCN=C(N)N)O[C@H]3CO)O[C@@H](CO)[C@@H]2O)(C(=O)O)C[C@H]1O | > 1000
CC(=O)N[C@H]1[C@H]([C@H](O)[C@H](O)CO)O[C@@](O[C@@H]2[C@H](O)[C@H](O[C@H]3[C@H](O[C@@H]4O[C@@H](C)[C@@H](O)[C@H](O)[C@@H]4O)[C@H](NC(C)=O)[C@H](NC(=O)[C@H](C)NC(=O)[C@@H]4CCCN4C(=O)CNC(=O)CNC(=O)[C@@H]4CCCN4C(=O)CN)O[C@H]3CO)O[C@@H](CO)[C@@H]2O)(C(=O)O)C[C@H]1O | 5000
